From patent US20010005720A1, “METHOD OF TREATING CHRONIC P[…] SCARRING DISEASES” (U.S.A. AS REPRESENTED BY THE SECRETARY DEPARTMENT OF HEALTH …, priority 1995, published 2001)

How the values were obtained:
Watanabe rabbits [1] = experiment: Watanabe rabbits Study B: oral PPS in drinking water, aortic intima/media histology; format: in vivo, rabbit; conditions: oral about 30 mg/kg/day in drinking water
Description: Twenty Watanabe rabbits were divided into four groups of five each, Groups A through D. All of the rabbits were fed the same high cholesterol diet (0.5% cholesterol). The animals of Groups A and B were given tap water to drink, while the animals of Groups C and D were given tap water containing 0.5 mg/mL of PPS sodium (Elmiron®). Based on observations of pre-study water consumption by the animals, the total daily dose of PPS sodium consumed by each animal in the treatment groups was about 30 mg/kg.
The animals of Groups A and C were euthanized and necropsied on day 50 of the study and their aortae examined.
The rabbits of Groups B and D were euthanized and necropsied on day 64 of the study. The aortae of these groups were examined histologically and the respective cross-sectional areas of the intimal and medial layers in various aortal branches were measured.

[2] = Paul et al. 1987; Wardle; cited from earlier work
normal mesangial cells [3] = experiment: Cell growth (cell counts) in normal mesangial cells; format: cell-based
Description: (§1) Normal mesangial cells (8) were plated in basal medium plus 20% fetal bovine serum (Gibco, Grand Island, N.Y.) in 24-well plates (Nunc, PGC Scientific Corp., Gaithersburg, Md.) at a density of 2−2.5×10^4 cells/well. At 24 hours the medium was discarded, cells were washed twice with PBS and incubated for 24-72 h in serum-free medium with 0.1% bovine serum albumin (RIA grade, Sicjma). The medium was replaced with fresh basal medium plus 20% fetal bovine serum with or without 5-100 μg/ml of PPS or compared to standard heparin (100 μg/ml). Cells of duplicate wells were trypsinized and counted in an Elzone® cell counter (Particle Data Inc., Elmhurst, Ill.) at days +3 and +5. In parallel wells, thymidine incorporation was determined by adding 1 μCi/well of [^3H] thymidine ([methyl-^3H] thymidine); 2.0 Ci/mM; DuPont NEN, Boston, Mass.). Counts were determined at day 1 or at day 3.

GH transgenic mice = experiment: GH transgenic mice, oral PPS sodium in drinking water; glomerular collagen by competitive PCR; format: in vivo, mouse; conditions: about 100 mg/kg, 10-12 weeks
Description: Six GH mice were treated for 10-12 weeks with oral PPS sodium (Elmiron®, Baker Norton Pharmaceuticals, Inc.) in their drinking water and six age-matched GH mice received tap water for the same duration. The amount of PPS sodium in the drinking water was about 100 mg/kg of animal body weight.
Glomeruli were isolated by microdissection in the presence of RNase inhibitors. The left kidney was perfused with saline followed by a collagenase solution containing soluble RNase inhibitors. The lower pole was removed prior to collagenase perfusion and snap frozen on dry ice for zymography. […]
Primers for mouse α1IV and α1I collagen, α smooth muscle cell actin, β-actin, laminin B1, tenascin, 92 kDa metalloproteinase and 72 kDa metalloproteinase mRNAs, and for bovine growth hormone genomic DNA, were synthesized on a PCR-Mate (Applied Biosystems, Foster City, Calif.). […] Primer specificity for mRNA was determined by omitting the reverse transcriptase enzyme. […] This permitted a rapid, non-quantitative assessment of mRNA levels. Thereafter, competitive PCR assays were utilized to measure α1IV collagen (and the ratio of α1IV collagen to GAPDH enzyme was calculated to normalize the data between animals), PDGF-B, α smooth muscle cell actin, β-actin, and laminin B1 cDNAs by constructing a cDNA mutant for each molecule, with a small internal deletion or a new restriction enzyme site. […]

Watanabe rabbits [4] = experiment: Watanabe rabbits Study A: subcutaneous PPS, morphometry of aortic lesions; format: in vivo, rabbit
Description: Twelve Watanabe rabbits were divided into two groups of six each (Group A and Group B) and fed a high cholesterol diet (0.5% cholesterol). The animals of Group A were treated daily with normal saline subcutaneously, while the animals of Group B were treated daily with 10 mg/kg of PPS sodium (Elmiron®) subcutaneously.
Four of the PPS-treated animals (Group B) died prior to completion of the study, one on day 22 and three between day 80 and day 86. On day 89, the animals of Group A and the two remaining animals of Group B were euthanized and necropsied and their tissues evaluated, particularly sections from different major branches of the aorta.

[5] = Wardle 1992; cited from earlier work
normal mesangial cells [6] = experiment: DNA synthesis by [3H]thymidine incorporation in normal mesangial cells; format: cell-based; conditions: day one (24 hours); PPS 5-100 μg/ml; 20% fetal bovine serum
Description: as §1

[7] = tested on: normal mesangial cell layers; experiment: mRNA levels of selected molecules in normal mesangial cell layers exposed to PPS (reverse transcription); format: cell-based; conditions: PPS 100 μg/ml; day 1 compared with days 3 and 5
From the text: The control was β-actin, which was unchanged, consistent with the absence of proliferation in the treated cells.

smooth muscle cell = conditions: Paul et al. 1987; Wardle; cited from earlier work
[8] = 10 mg/kg/day s.c., day 89, 0.5% cholesterol diet
[9] = PPS vs control, 10 mg/kg/day s.c., day 89
[10] = all aortal cross-sections examined, 10 mg/kg/day s.c.

In the case of Pentosan polysulfate [PPS], the “atherosclerotic plaque development in intima, visual, vs control” value (Watanabe rabbits [1]; day 50, Group C vs Group A) is reported as “less atherosclerotic plaque development”, the “mean intimal cross-sectional area in each aortal branch vs untreated” value (Watanabe rabbits [1]; day 64, Group D vs Group B) is reported as “substantially less” and the “ratio of intima to medial areas in every aortal branch vs untreated” value (Watanabe rabbits [1]; day 64, Group D vs Group B) is reported as “lower”. The hyperlipidemia [2] was “decreases”, the “potency relative to native heparin on a molar basis (cell growth inhibition)” value (normal mesangial cells [3]; PPS 100 μg/ml vs heparin 100 μg/ml, three and five days) was “roughly twice” and the “concentration of maximum inhibitory response (cell number)” value (normal mesangial cells [3]; day three, PPS 5-100 μg/ml, 20% fetal bovine serum) was 25 µg/mL. For the same substance, the “mean type IV collagen/GAPDH ratio in glomeruli relative to untreated (control) group” value (GH transgenic mice) was “less than half”, the “scarring-type collagen present in glomeruli vs untreated animals (confirmed by histology and immunofluorescent microscopy)” value (GH transgenic mice) was “considerably less” and the “treated animals that died prior to completion of the study” value (Watanabe rabbits [4]; 10 mg/kg daily subcutaneously, group of six, one on day 22, three between day 80 and 86, high cholesterol diet) was “Four”. The “Plaque area, Abdominal Aorta” value (Watanabe rabbits [4]; [8]) was 0.04 cm^2, the “Plaque area, Ascending Aorta” value (Watanabe rabbits [4]; [8]) was 0.59 cm^2 and the “Smooth Muscle Layer area, Abdominal Aorta” value (Watanabe rabbits [4]; [8]) was 0.303 cm^2. For the same substance, the “Smooth Muscle Layer area, Ascending Aorta” value (Watanabe rabbits [4]; [8]) was 0.243 cm^2, the “Smooth Muscle Layer area, Thoracic Aorta” value (Watanabe rabbits [4]; [8]) was 0.334 cm^2 and the “Smooth Muscle/Plaque, Abdominal Aorta” value (Watanabe rabbits [4]; [8]) was 7.58. The “Smooth Muscle/Plaque, Ascending Aorta” value (Watanabe rabbits [4]; [8]) was 4.12, the “Smooth Muscle/Plaque, Thoracic Aorta” value (Watanabe rabbits [4]; [8]) was 1.184 and the “plaque in cross-section of abdominal aorta (FIG. 11 photograph)” value (Watanabe rabbits [4]; 10 mg/kg/day s.c., high cholesterol diet) was “almost no sign of plaque”. For the same substance, the “Fold decrease in Plaque Size, Abdominal Aorta” value (Watanabe rabbits [4]; [9]) was 10.2×, the “Fold decrease in Plaque Size, Ascending Aorta” value (Watanabe rabbits [4]; [9]) was 6.8× and the “Fold decrease in Plaque Size, Thoracic Aorta” value (Watanabe rabbits [4]; [9]) was 2.5×. The “plaque deposits in comparison with control rabbits” value (Watanabe rabbits [4]; [10]) was “much smaller”, the “ratio of smooth muscle layer to plaque, times higher than control rabbits” value (Watanabe rabbits [4]; [10]) was at most 6.8 times and the “anticoagulant potency relative to heparin” value [5] was “about one-fifteenth”. For the same substance, the partial thromboplastin time [5] was “prolongs”, the “concentration at which the maximum dose-response plateaued (DNA synthesis, tritiated thymidine incorporation)” value (normal mesangial cells [6]) was 50 µg/mL and the “92 kDa enzyme activity increase” value [7] was “more than 50%”. The “TGF-β mRNA reduction” value [7] was 50%, the “type I collagen mRNA” value [7] was “substantially decreased” and the “type IV collagen mRNA” value [7] was “no changes”. For the same substance, the “β-actin mRNA (control)” value [7] was “unchanged” and the “smooth muscle cell proliferation” value (smooth muscle cell) was “inhibits”.
